Measured values reported in ChEMBL document CHEMBL4038279, “Design and characterization of opioid ligands based on cycle-in-macrocycle scaffold” (Bioorg Med Chem, 2017).
Where a SMILES comes first, the peptide text is derived from it. Bridges are numbered along the chain shown (N, C = ends). [ ]: non-standard residue; d: D form.

Tests used:
Mu-type opioid receptor = Mu-type opioid receptor (Homo sapiens, UniProt P35372); test: Displacement of [3H]DAMGO from recombinant human mu opioid receptor expressed in CHO cell membranes after 120 mins by liquid scintillation counter analysis
[1] = target: Delta-type opioid receptor (Homo sapiens, UniProt P41143); test: Displacement of [3H]deltorphin-2 from recombinant human delta opioid receptor expressed in CHO cell membranes after 120 mins by liquid scintillation counter analysis
[2] = target: Kappa-type opioid receptor (Homo sapiens, UniProt P41145); test: Displacement of [3H]U-69593 from recombinant human kappa opioid receptor expressed in CHO cell membranes after 120 mins by liquid scintillation counter analysis
Sequence of Kappa-type opioid receptor (P41145 whole entry): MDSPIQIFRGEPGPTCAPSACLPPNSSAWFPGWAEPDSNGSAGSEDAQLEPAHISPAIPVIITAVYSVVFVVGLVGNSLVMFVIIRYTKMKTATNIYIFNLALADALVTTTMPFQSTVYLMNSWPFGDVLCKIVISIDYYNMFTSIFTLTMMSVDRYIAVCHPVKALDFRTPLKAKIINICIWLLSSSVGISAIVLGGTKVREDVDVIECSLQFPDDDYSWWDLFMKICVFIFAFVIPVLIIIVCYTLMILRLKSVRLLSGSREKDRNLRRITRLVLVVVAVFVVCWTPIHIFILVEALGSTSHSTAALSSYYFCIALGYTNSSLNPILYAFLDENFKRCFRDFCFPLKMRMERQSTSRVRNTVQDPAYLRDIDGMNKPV

Sequence of Mu-type opioid receptor (P35372 whole entry): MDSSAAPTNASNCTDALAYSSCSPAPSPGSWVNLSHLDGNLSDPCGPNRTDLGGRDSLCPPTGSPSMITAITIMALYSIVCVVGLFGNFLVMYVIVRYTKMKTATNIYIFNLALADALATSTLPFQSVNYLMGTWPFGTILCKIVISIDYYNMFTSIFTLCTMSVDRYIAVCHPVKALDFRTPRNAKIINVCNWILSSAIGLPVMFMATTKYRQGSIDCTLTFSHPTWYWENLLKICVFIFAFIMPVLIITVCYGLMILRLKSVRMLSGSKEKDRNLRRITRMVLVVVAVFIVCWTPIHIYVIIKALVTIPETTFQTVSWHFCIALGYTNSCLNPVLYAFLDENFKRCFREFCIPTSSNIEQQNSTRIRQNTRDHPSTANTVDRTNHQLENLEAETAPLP
Sequence of Delta-type opioid receptor (P41143 whole entry): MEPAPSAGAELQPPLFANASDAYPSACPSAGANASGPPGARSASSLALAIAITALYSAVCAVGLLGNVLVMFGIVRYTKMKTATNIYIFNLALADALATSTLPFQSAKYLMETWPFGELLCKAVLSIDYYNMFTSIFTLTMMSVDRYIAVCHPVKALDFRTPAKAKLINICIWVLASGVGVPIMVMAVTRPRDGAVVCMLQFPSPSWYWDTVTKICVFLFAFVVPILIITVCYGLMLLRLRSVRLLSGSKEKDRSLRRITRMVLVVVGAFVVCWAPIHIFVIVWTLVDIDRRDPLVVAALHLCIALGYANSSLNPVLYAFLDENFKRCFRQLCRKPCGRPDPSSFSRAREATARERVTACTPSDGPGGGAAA

NC(=O)[C@@H]1CC(=O)NCCCC[C@@H](NC(=O)[C@@H](N)Cc2ccc(O)cc2)C(=O)N[C@@H](Cc2ccccc2)C(=O)N2CCC(CC2)C(=O)N1
Ki (Mu-type opioid receptor): 1.15 nM
Ki [1]: 76.7 nM
Ki [2]: 5460 nM

NC(=O)[C@@H]1CC(=O)NCCCC[C@@H](NC(=O)[C@@H](N)Cc2ccc(O)cc2)C(=O)N[C@@H](Cc2ccccc2)C(=O)N2CCC[C@H]2C(=O)N1
Ki (Mu-type opioid receptor): 0.46 nM
Ki [1]: 85.5 nM
Ki [2]: 884 nM

NC(=O)[C@@H]1CC(=O)NCCCC[C@@H](NC(=O)[C@@H](N)Cc2ccc(O)cc2)C(=O)N[C@@H](Cc2ccccc2)C(=O)N[C@@H](Cc2ccccc2)C(=O)N1 (H-Y[dK]FFD-NH2; lactam 2-5)
Ki (Mu-type opioid receptor): 0.56 nM
Ki [1]: 279 nM
Ki [2]: 2.36 nM

NC(=O)[C@@H]1CC(=O)NCCCC[C@@H](NC(=O)[C@@H](N)Cc2ccc(O)cc2)C(=O)N[C@@H](Cc2ccccc2)C(=O)N2CCCC[C@H]2C(=O)N1
Ki (Mu-type opioid receptor): 3.16 nM
Ki [1]: 49.6 nM
Ki [2]: 6720 nM

NC(=O)[C@@H]1CC(=O)NCCCC[C@@H](NC(=O)[C@@H](N)Cc2ccc(O)cc2)C(=O)N[C@@H](Cc2ccccc2)C(=O)N2CCC[C@H](C2)C(=O)N1
Ki (Mu-type opioid receptor): 0.9 nM
Ki [1]: 67 nM
Ki [2]: 4620 nM
